Laboratory results published in patent publication US4619925A, “3-Propenyl cephalosporin derivatives” (priority 1985, dated 1986).
Where two headings read alike, the source gives them in different places.

Columns and labels:
E coli RGN-823 = test: MIC, agar dilution technique (Mueller-Hinton Agar); assay type: cell-based; settings: Escherichia coli, RGN823, Gn-Ib, ampicillin and cephalothin resistant, read-out: Minimum Inhibitory Concentration
Text: (§1) Each of these groups of organisms is constituted of five individual strains of microorganism. The Gp-Ia organisms are Gram-positive staphylococci which are sensitive to penicillin. The Gp-Ib organisms are Gram-positive staphylococci which are resistant to penicillin and produce penicillinase. The Gn-Ia organisms are Gram-negative bacteria which are sensitive to ampicillin and cephalothin. The Gn-Ib organisms are Gram-negative bacteria which are resistant to ampicillin and cephalothin.

E. coli A15148 = test: MIC, agar dilution technique (Mueller-Hinton Agar); assay type: cell-based; settings: Escherichia coli, A15148, read-out: Minimum Inhibitory Concentration
Text: as §1

E. coli A20341-1 = test: MIC, agar dilution technique (Mueller-Hinton Agar); assay type: cell-based; settings: Escherichia coli, A203411, read-out: Minimum Inhibitory Concentration
Text: as §1

E. coli A9660 = test: MIC, agar dilution technique (Mueller-Hinton Agar); assay type: cell-based; settings: Escherichia coli, A9660, read-out: Minimum Inhibitory Concentration
Text: as §1

E. coli Juhl [1] = test: MIC, agar dilution technique (Mueller-Hinton Agar); assay type: cell-based; settings: Escherichia coli, read-out: Minimum Inhibitory Concentration
Text: as §1

K. pneumoniae A20346 = test: MIC, agar dilution technique (Mueller-Hinton Agar); assay type: cell-based; settings: Klebsiella pneumoniae, A20346, read-out: Minimum Inhibitory Concentration
Text: as §1

K. pneumoniae D11 = test: MIC, agar dilution technique (Mueller-Hinton Agar); assay type: cell-based; settings: Klebsiella pneumoniae, D11, read-out: Minimum Inhibitory Concentration
Text: as §1

S. aureus A15092 = test: MIC, agar dilution technique (Mueller-Hinton Agar); assay type: cell-based; settings: Staphylococcus aureus, Gp-Ib, penicillin resistant, read-out: Minimum Inhibitory Concentration
Text: as §1

S. aureus A9497 = test: MIC, agar dilution technique (Mueller-Hinton Agar); assay type: cell-based; settings: Staphylococcus aureus, Gp-Ia, penicillin sensitive, read-out: Minimum Inhibitory Concentration
Text: as §1

S. aureus A9534 = test: MIC, agar dilution technique (Mueller-Hinton Agar); assay type: cell-based; settings: Staphylococcus aureus, Gp-Ia, penicillin sensitive, read-out: Minimum Inhibitory Concentration
Text: as §1

S. aureus A9602 = test: MIC, agar dilution technique (Mueller-Hinton Agar); assay type: cell-based; settings: Staphylococcus aureus, A9602, read-out: Minimum Inhibitory Concentration
Text: as §1

S. aureus BX-1633-2 = test: MIC, agar dilution technique (Mueller-Hinton Agar); assay type: cell-based; settings: Staphylococcus aureus, BX16332, read-out: Minimum Inhibitory Concentration
Text: as §1

S. aureus No. 193 = test: MIC, agar dilution technique (Mueller-Hinton Agar); assay type: cell-based; settings: Staphylococcus aureus, Gp-Ib, penicillin resistant, read-out: Minimum Inhibitory Concentration
Text: as §1

S. aureus Russell = test: MIC, agar dilution technique (Mueller-Hinton Agar); assay type: cell-based; settings: Staphylococcus aureus, read-out: Minimum Inhibitory Concentration
Text: as §1

S. aureus Smith [2] = test: MIC, agar dilution technique (Mueller-Hinton Agar); assay type: cell-based; settings: Staphylococcus aureus, Gp-Ia, penicillin sensitive, read-out: Minimum Inhibitory Concentration
Text: as §1

S. aureus Terajima = test: MIC, agar dilution technique (Mueller-Hinton Agar); assay type: cell-based; settings: Staphylococcus aureus, Gp-Ia, penicillin sensitive, read-out: Minimum Inhibitory Concentration
Text: as §1

H. influenzae A20177 = test: In vitro activity against fastidious bacteria; assay type: cell-based; settings: Haemophilus influenzae, A20177
Text: (§2) Table 5 contains comparative data for in vitro antibacterial activity against fastidious bacteria.

H. influenzae A20193 = test: In vitro activity against fastidious bacteria; assay type: cell-based; settings: Haemophilus influenzae, A20193
Text: as §2

H. influenzae A21523 = test: In vitro activity against fastidious bacteria; assay type: cell-based; settings: Haemophilus influenzae, A21523
Text: as §2

H. influenzae A22482 = test: In vitro activity against fastidious bacteria; assay type: cell-based; settings: Haemophilus influenzae, A22482
Text: as §2

H. influenzae A22483 = test: In vitro activity against fastidious bacteria; assay type: cell-based; settings: Haemophilus influenzae, A22483
Text: as §2

H. influenzae A9729 = test: In vitro activity against fastidious bacteria; assay type: cell-based; settings: Haemophilus influenzae, A9729
Text: as §2

H. influenzae A9833 = test: In vitro activity against fastidious bacteria; assay type: cell-based; settings: Haemophilus influenzae, A9833
Text: as §2

N. gonorrheae A15112 = test: In vitro activity against fastidious bacteria; assay type: cell-based
Text: as §2

N. gonorrheae A20143 = test: In vitro activity against fastidious bacteria; assay type: cell-based
Text: as §2

N. gonorrheae A20154 = test: In vitro activity against fastidious bacteria; assay type: cell-based
Text: as §2

N. gonorrheae A20155 = test: In vitro activity against fastidious bacteria; assay type: cell-based
Text: as §2

N. meningitidis A20048 = test: In vitro activity against fastidious bacteria; assay type: cell-based; settings: Neisseria meningitidis, A20048
Text: as §2

N. meningitidis A21487 = test: In vitro activity against fastidious bacteria; assay type: cell-based; settings: Neisseria meningitidis, A21487
Text: as §2

N. meningitidis A21495 = test: In vitro activity against fastidious bacteria; assay type: cell-based; settings: Neisseria meningitidis, A21495
Text: as §2

N. meningitidis A21497 = test: In vitro activity against fastidious bacteria; assay type: cell-based; settings: Neisseria meningitidis, A21497
Text: as §2

S. pneumoniae A15069 = test: In vitro activity against fastidious bacteria; assay type: cell-based; settings: Streptococcus pneumoniae, A15069
Text: as §2

S. pneumoniae A20759 = test: In vitro activity against fastidious bacteria; assay type: cell-based; settings: Streptococcus pneumoniae, A20759
Text: as §2

S. pneumoniae A9585 = test: In vitro activity against fastidious bacteria; assay type: cell-based; settings: Streptococcus pneumoniae, A9585
Text: as §2

S. pneumoniae Type II = test: In vitro activity against fastidious bacteria; assay type: cell-based; settings: Streptococcus pneumoniae
Text: as §2

S. pyogenes A15040 = test: In vitro activity against fastidious bacteria; assay type: cell-based; settings: Streptococcus pyogenes, A15040
Text: as §2

S. pyogenes A20065 = test: In vitro activity against fastidious bacteria; assay type: cell-based; settings: Streptococcus pyogenes, A20065
Text: as §2

S. pyogenes A20201 = test: In vitro activity against fastidious bacteria; assay type: cell-based; settings: Streptococcus pyogenes, A20201
Text: as §2

S. pyogenes A9604 = test: In vitro activity against fastidious bacteria; assay type: cell-based; settings: Streptococcus pyogenes, A9604
Text: as §2

S. pyogenes Dick = test: In vitro activity against fastidious bacteria; assay type: cell-based; settings: Streptococcus pyogenes
Text: as §2

S. pyogenes s-23 = test: In vitro activity against fastidious bacteria; assay type: cell-based; settings: Streptococcus pyogenes, S23
Text: as §2

E. coli Juhl [3] = test: Protective dose for mice infected with lethal inoculum; assay type: in vivo; settings: 50% survival after five days
Text: (§3) The data in Table 2 are results of protective doses (PD50) for mice infected with a lethal inoculum of bacteria. Two different bacteria were employed in the studies, one a Gram-positive organism (S. aureus Smith) and the other a Gram-negative organism (E. coli Juhl). The PD50 is that dose which, when administered to a group of injected mice, results in 50% survival after five days. Normally untreated infected mice die within three days following injection of the lethal inoculum.

S. aureus Smith [4] = test: as above; assay type: in vivo; settings: po, 50% survival after five days
Text: as §3

Mouse urinary recovery = assay type: in vivo, mice; settings: mouse, urine, po, 20 mg/kg; for dose excreted at 24 h: p.o.

N[C@@H](C(=O)N[C@@H]1C(=O)N2C(C(=O)O)=C(Cl)CS[C@H]12)c1ccccc1 [cefaclor]
1.1: PD50 (protective dose) (E. coli Juhl [3]; po)
1.5%: dose excreted at 24 h (Mouse urinary recovery; 6-24 hr, read-out: Mouse urinary recovery 6-24 hr)
0.20: PD50 (protective dose) (S. aureus Smith [4])
6.3 mg/L: MIC (E. coli A20341-1) | MIC (K. pneumoniae A20346) | MIC (S. aureus A15092) | MIC (S. aureus BX-1633-2) | MIC (S. aureus No. 193)
0.4 mg/L: MIC (S. aureus Terajima)
0.3%: dose excreted at 6 h (Mouse urinary recovery; 4-6 hr)
3.1 mg/L: MIC (S. aureus A9602) | MIC (S. aureus Russell) | MIC (S. pneumoniae A15069) | MIC (S. pneumoniae A20759)
0.2 mg/L: MIC (S. pyogenes A15040) | MIC (S. pyogenes A20065) | MIC (S. pyogenes A20201) | MIC (S. pyogenes A9604) | MIC (S. pyogenes Dick) | MIC (S. pyogenes s-23)
69%: dose excreted at 24 h (Mouse urinary recovery; total, read-out: Mouse urinary recovery Total)
6.7%: dose excreted at 4 h (Mouse urinary recovery; 2-4 hr)
0.8 mg/L: MIC (E. coli A9660) | MIC (E. coli Juhl [1]) | MIC (K. pneumoniae D11) | MIC (S. aureus A9497) | MIC (S. aureus A9534) | MIC (S. aureus Smith [2]) | MIC (H. influenzae A20177) | MIC (H. influenzae A20193) | MIC (H. influenzae A21523) | MIC (H. influenzae A22482) | MIC (H. influenzae A22483) | MIC (H. influenzae A9729) | MIC (H. influenzae A9833) | MIC (N. gonorrheae A15112) | MIC (N. gonorrheae A20143) | MIC (N. gonorrheae A20154) | MIC (N. gonorrheae A20155) | MIC (N. meningitidis A20048) | MIC (N. meningitidis A21487) | MIC (N. meningitidis A21495) | MIC (N. meningitidis A21497) | MIC (S. pneumoniae A9585) | MIC (S. pneumoniae Type II)
0.8: PD50 (protective dose) (E. coli Juhl [3]; im)
25 mg/L: MIC (E coli RGN-823) | MIC (E. coli A15148)
60%: dose excreted at 2 h (Mouse urinary recovery; 0-2 hr)
